Values quoted from earlier work as cited in patent US20070043121A1 (priority 2003, published 2007).

Columns and labels:
[1] = tested on: sodium channel (3H-batrachotoxin)
[2] = water

CC(C)c1cccc(C(C)C)c1O [Propofal, 2,6-diisopropylphenol]
IC50 [1]: 26 µM | aqueous solubility [2]: very water insoluble
